Measurements as given in ChEMBL document CHEMBL4017443, “(-)-UB006: A new fatty acid synthase inhibitor and cytotoxic agent without anorexic side effects” (Eur J Med Chem, 2017).
The source made the active and inactive calls. No cut-off for these calls is given here.

Assays:
SK-BR-3 = experiment: Antiproliferative activity against human SKBR3 cells after 72 hrs by MTT assay; assay type: functional, cell-based; conditions: SK-BR-3, 72 h
Fatty acid synthase = Fatty acid synthase (Rattus norvegicus, UniProt P12785); experiment: Inhibition of fatty acid synthase in rat cytosolic hepatic extracts using acetyl CoA and malonyl CoA as substrate preincubated for 30 mins followed by acetyl CoA addition and subsequent incubation for 3 mins prior to malonyl CoA addition measured after 10 mins in presence of NADPH by spectrophotometric method
Chain of Fatty acid synthase (P12785 whole entry): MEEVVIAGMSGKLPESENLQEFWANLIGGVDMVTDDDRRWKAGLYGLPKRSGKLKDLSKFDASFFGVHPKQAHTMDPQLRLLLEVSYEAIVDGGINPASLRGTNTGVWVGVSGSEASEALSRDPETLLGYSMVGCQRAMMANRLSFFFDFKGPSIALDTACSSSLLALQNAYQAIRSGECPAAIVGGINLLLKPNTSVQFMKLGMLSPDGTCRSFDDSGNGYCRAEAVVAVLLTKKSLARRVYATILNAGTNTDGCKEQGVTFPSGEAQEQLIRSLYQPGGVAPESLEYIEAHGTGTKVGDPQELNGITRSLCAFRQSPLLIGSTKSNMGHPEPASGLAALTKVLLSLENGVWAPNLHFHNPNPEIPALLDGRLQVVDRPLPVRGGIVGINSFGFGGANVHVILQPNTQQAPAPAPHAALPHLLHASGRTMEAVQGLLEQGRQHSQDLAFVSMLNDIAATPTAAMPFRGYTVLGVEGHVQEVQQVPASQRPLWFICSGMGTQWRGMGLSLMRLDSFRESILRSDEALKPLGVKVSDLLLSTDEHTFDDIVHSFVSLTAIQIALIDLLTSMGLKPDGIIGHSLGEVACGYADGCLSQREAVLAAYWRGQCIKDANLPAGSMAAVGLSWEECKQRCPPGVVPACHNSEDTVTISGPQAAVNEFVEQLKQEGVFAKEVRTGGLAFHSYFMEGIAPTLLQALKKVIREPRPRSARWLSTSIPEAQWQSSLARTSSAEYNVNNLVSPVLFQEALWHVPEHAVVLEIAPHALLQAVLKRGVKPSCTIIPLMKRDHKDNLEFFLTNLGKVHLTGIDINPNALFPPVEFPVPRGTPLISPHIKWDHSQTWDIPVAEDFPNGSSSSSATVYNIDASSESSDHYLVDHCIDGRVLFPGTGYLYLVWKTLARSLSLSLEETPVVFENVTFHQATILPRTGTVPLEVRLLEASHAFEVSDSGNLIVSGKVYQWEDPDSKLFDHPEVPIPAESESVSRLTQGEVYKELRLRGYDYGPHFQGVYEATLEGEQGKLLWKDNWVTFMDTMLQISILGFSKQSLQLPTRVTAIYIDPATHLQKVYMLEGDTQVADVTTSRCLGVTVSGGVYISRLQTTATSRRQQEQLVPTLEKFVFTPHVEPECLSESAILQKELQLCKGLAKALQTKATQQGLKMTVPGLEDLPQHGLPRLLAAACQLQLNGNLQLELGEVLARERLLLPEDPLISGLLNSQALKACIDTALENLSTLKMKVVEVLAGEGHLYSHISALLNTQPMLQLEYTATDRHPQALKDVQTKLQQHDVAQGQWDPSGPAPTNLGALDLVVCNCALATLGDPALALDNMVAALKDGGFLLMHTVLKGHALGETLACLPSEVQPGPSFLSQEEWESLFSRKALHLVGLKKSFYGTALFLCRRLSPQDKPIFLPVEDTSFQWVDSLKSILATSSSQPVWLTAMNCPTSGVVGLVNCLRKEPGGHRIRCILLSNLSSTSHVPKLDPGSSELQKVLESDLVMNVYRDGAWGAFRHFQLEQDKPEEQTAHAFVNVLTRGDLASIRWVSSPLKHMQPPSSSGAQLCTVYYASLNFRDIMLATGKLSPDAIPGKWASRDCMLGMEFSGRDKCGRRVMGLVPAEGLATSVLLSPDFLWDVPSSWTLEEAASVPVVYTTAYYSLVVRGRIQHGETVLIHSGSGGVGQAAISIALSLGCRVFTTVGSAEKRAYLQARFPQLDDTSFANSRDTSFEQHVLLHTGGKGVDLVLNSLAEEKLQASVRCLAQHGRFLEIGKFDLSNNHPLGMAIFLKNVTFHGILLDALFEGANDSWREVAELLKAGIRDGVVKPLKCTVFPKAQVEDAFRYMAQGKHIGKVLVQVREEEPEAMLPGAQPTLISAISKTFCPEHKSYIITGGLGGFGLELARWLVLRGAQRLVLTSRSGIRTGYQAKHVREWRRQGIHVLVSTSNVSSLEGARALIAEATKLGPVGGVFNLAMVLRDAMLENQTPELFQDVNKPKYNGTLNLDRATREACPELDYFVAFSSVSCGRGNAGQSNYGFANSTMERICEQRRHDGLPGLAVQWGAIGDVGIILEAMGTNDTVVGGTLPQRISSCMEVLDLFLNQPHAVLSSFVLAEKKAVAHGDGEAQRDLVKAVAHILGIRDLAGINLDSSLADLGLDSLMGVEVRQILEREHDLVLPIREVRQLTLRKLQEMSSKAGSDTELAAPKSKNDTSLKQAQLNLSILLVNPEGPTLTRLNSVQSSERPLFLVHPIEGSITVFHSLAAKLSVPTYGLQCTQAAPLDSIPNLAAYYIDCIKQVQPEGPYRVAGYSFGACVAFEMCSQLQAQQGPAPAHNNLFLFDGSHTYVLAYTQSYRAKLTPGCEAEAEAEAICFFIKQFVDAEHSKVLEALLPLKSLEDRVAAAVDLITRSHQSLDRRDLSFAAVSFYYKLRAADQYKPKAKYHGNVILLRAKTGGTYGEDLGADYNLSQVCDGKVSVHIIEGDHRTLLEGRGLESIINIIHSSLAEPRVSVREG

OVCAR-3 = experiment: Antiproliferative activity against human OVCAR3 cells after 72 hrs by MTT assay; assay type: functional, cell-based; conditions: OVCAR-3, 72 h
HCT-116 = experiment: Antiproliferative activity against human HCT116 cells after 72 hrs by MTT assay; assay type: functional, cell-based; conditions: HCT-116, 72 h
MIA PaCa-2 = experiment: Antiproliferative activity against human MIAPaCa2 cells after 72 hrs by MTT assay; assay type: functional, cell-based; conditions: MIA PaCa-2, 72 h
PC-3 = experiment: Antiproliferative activity against human PC3 cells after 72 hrs by MTT assay; assay type: functional, cell-based; conditions: PC-3, 72 h
MDA-MB-231 = experiment: Antiproliferative activity against human MDA-MB-231 cells after 72 hrs by MTT assay; assay type: functional, cell-based; conditions: MDA-MB-231, 72 h
Fibroblast = experiment: Antiproliferative activity against fibroblasts (unknown origin) after 72 hrs by MTT assay; assay type: cell-based
MCF7 = experiment: cells; conditions: Homo sapiens, MCF7, 72 h
[1] = molecular target: Ribosomal protein S6 kinase beta-1 (Homo sapiens) (UniProt P23443); experiment: Inhibition of S6K1 phosphorylation at T389 in human OVCAR3 cells at 29.74 uM after 24 hrs by Western blot analysis; assay type: cell-based
Chain of Ribosomal protein S6 kinase beta-1 (Homo sapiens) (P23443 whole entry, looked up, canonical isoform): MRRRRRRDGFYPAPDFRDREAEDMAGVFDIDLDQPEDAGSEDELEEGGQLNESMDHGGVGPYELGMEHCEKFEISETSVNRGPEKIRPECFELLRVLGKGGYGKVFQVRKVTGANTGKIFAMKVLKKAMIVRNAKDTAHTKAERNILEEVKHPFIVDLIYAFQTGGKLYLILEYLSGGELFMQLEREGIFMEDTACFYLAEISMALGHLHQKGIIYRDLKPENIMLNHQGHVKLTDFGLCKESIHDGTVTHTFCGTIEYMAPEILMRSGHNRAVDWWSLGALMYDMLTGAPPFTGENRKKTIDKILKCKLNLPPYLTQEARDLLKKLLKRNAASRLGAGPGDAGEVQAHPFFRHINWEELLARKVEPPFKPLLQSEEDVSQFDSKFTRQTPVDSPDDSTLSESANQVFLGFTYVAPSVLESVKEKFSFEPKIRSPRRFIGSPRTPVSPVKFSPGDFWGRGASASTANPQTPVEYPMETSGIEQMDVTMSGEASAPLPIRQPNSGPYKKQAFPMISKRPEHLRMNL

[2] = molecular target: T1, Carnitine O-palmitoyltransferase 1, liver isoform (Rattus norvegicus, UniProt P32198); experiment: Inhibition of rat wild-type CPT1A expressed in yeast mitochondrial extracts using L-[methyl-3H]carnitine and palmitoyl-CoA as substrates preincubated for 1 min followed by substrate addition measured for 5 mins by radiometric method
T1 sequence (P32198 whole entry): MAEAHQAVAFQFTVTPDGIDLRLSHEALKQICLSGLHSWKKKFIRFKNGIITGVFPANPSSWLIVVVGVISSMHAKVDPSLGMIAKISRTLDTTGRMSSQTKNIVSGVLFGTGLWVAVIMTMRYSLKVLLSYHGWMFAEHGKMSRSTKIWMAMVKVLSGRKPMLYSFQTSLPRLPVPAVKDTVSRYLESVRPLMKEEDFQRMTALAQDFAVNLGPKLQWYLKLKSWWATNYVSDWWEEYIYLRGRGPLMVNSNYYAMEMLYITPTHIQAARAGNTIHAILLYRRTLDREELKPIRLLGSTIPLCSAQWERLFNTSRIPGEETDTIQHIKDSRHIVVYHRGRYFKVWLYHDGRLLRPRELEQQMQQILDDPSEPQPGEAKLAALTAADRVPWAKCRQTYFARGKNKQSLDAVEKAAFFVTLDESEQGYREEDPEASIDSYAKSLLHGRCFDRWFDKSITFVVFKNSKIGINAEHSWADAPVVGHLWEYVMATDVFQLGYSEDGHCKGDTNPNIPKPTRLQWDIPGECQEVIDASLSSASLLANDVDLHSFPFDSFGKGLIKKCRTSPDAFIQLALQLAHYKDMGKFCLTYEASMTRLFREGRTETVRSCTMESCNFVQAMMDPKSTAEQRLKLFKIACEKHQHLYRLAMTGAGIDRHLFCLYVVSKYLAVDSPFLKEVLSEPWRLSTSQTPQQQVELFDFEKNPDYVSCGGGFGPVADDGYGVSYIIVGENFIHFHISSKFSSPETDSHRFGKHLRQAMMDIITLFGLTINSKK

Mus musculus [3] = experiment: Toxicity in ip dosed C57/BL6J mouse assessed as decrease in body weight; assay type: organism-based; conditions: in vivo
Rattus norvegicus [4] = experiment: Toxicity in icv dosed Sprague-Dawley rats assessed as decrease in body weight; assay type: organism-based; conditions: in vivo, icv_or_intrathecal
Rattus norvegicus [5] = experiment: Toxicity in Sprague-Dawley rats assessed as decrease in body weight at 33 mM, icv measured every day for 3 days; conditions: in vivo, icv_or_intrathecal, 72 h, 33000 µM
Rattus norvegicus [6] = experiment: Toxicity in Sprague-Dawley rats assessed as decrease in food intake at 30 mM, icv measured after 1 to 22 hrs; conditions: in vivo, icv_or_intrathecal, 30000 µM
Mus musculus [7] = experiment: Toxicity in C57/BL6J mouse assessed as decrease in body weight at 15 mg/kg, ip administered once daily for 3 days measured after 2 days; assay type: organism-based; conditions: in vivo, 48 h
Mus musculus [8] = experiment: Toxicity in C57/BL6J mouse assessed as decrease in food intake at 15 mg/kg, ip administered once daily for 3 days measured after 2 days; assay type: organism-based; conditions: in vivo, 48 h
[9] = molecular target: Fatty acid synthase (Homo sapiens) (UniProt P49327); conditions: 8 ug/ml
Description: Inhibition of fatty acid synthase in human OVCAR3 cells assessed as reduction in fatty acid synthesis at 8 ug/ml pretreated for 2 hrs followed by [U14C]-acetate addition measured after 2 hrs by scintillation counting method relative to control

| Structure (SMILES) | IC50 (SK-BR-3) | IC50 (OVCAR-3) | IC50 (HCT-116) | IC50 (MIA PaCa-2) | IC50 (PC-3) | IC50 (MDA-MB-231) | IC50 (MCF7) | IC50 [2] | IC50 (Fibroblast) | further results |
| --- | --- | --- | --- | --- | --- | --- | --- | --- | --- | --- |
| C=C1C(=O)O[C@@H](CCCCCCCC)[C@@H]1C(=O)O | 38.2 µM | 17.9 µM | 74.8 µM | 25.3 µM | 34.3 µM | 57.7 µM | 46.4 µM |  | > 117 µM | IC50 (Fatty acid synthase): 440 to 498 µM |
| C=C1C(=O)O[C@@H](CCCCCCCC)[C@@H]1CO |  |  |  |  |  |  |  |  |  | inhibition [1]: Active |

Now from value to compound, other results behind:

| IC50 (SK-BR-3) | IC50 (OVCAR-3) | IC50 (HCT-116) | IC50 (MIA PaCa-2) | IC50 (PC-3) | IC50 (MDA-MB-231) | IC50 (MCF7) | IC50 [2] | Structure (SMILES) | IC50 (Fibroblast) | further results |
| --- | --- | --- | --- | --- | --- | --- | --- | --- | --- | --- |
|  |  |  |  |  |  |  | 1.1 µM | CCCCCCCCC1OC(=O)C(CSCCNC(=O)CCNC(=O)[C@H](O)C(C)(C)COP(=O)(O)OP(=O)(O)OC[C@H]2O[C@@H](n3cnc4c(N)ncnc43)[C@H](O)[C@@H]2OP(=O)(O)O)C1C(=O)O (mixture of isomers) |  |  |
|  |  |  |  |  |  |  | 15.7 µM | CCCCCCCCC1OC(=O)C(CSCCNC(=O)CCNC(=O)[C@H](O)C(C)(C)COP(=O)(O)OP(=O)(O)OC[C@H]2O[C@@H](n3cnc4c(N)ncnc43)[C@H](O)[C@@H]2OP(=O)(O)O)C1CO (mixture of isomers) |  | Activity (Mus musculus [3]): Non-Toxic; Activity (Rattus norvegicus [4]): Non-Toxic |
| 19.8 µM | 21.9 µM | 46.4 µM | 21.8 µM | 26.8 µM | 43.8 µM | 27.3 µM |  | C=C1C(=O)OC(CCCCCCCC)C1C(=O)O (racemic) | 63.2 µM | Activity (Rattus norvegicus [5]): Toxic; Activity (Rattus norvegicus [6]): Toxic; Activity (Mus musculus [7]): Toxic; Activity (Mus musculus [8]): Toxic; inhibition [9]: 38% |
